Test results as given in patent US9969746B2, “Opioid compounds and their uses” (THE UNIVERSITY OF BATH, priority 2013, dated 2018).

Legend:
NOP [1] = target: T1, NOP (Homo sapiens, UniProt P41146); test: Binding affinity to human NOP receptor transfected into CHO cells ([3H]N/OFQ)
T1 construct: expressed in transfected cells; host or cells: CHO cells (membranes)

MOP [2] = target: T2, MOP (Homo sapiens, UniProt P35372); test: biochemical; type: binding; conditions: [3H]DAMGO, membranes of CHO cells with human receptor
T2 construct: expressed in transfected cells; host or cells: CHO cells (membranes)
T2 sequence (P35372 whole entry): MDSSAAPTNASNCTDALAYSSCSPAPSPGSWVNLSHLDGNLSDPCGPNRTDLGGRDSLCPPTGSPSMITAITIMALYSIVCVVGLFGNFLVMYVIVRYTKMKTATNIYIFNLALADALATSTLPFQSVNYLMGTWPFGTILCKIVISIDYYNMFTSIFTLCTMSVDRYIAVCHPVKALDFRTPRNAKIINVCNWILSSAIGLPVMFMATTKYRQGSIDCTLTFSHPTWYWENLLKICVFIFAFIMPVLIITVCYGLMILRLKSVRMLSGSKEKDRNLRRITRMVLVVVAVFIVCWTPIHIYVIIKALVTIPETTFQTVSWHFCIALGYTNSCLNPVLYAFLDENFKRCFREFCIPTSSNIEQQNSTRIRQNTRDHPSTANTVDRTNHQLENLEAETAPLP

KOP = target: T3, KOP (Homo sapiens, UniProt P41145); test: biochemical; type: binding; conditions: [3H]U69593, membranes of CHO cells with human receptor
T3 construct: expressed in transfected cells; host or cells: CHO cells (membranes)
T3 sequence (P41145 whole entry): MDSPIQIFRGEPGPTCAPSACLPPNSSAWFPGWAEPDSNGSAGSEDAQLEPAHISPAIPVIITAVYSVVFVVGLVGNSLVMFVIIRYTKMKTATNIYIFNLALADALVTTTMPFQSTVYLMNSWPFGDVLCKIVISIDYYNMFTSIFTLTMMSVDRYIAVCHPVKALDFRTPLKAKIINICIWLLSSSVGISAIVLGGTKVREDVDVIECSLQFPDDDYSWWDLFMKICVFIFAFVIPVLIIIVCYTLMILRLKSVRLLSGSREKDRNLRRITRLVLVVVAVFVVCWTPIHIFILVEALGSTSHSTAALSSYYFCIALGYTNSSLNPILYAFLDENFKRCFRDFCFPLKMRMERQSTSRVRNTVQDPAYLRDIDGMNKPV

MOP [3] = target: T2, MOP; test: [35S]GTPγS binding, MOP; type: biochemical; conditions: 1 h; read-out: % stim MOP
Description: (§1) [^35S]GTPγS binding was conducted basically as described by Traynor and Nahorski (Traynor et al., 1995). Cells were scraped from tissue culture dishes into 20 mM Hepes, 1 mM EDTA, then centrifuged at 500×g for 10 min. Cells were resuspended in this buffer and homogenized using a Polytron Homogenizer. The homogenate was centrifuged at 27,000×g for 15 min, and the pellet re suspended in Buffer A, containing: 20 mM Hepes, 10 mM MgCl2, 100 mM NaCl, pH 7.4. The suspension was re centrifuged at 27,000×g and suspended once more in Buffer A. For the binding assay, membranes (8-15 μg protein) were incubated with [^35S]GTPγS (50 pM), GDP (10 μM), and the appropriate compound, in a total volume of 1.0 ml, for 60 min at 25′C. Samples were filtered over glass fiber filters and counted as described for the binding assays. Statistical analysis was conducted using the program Prism®.

NOP [4] = target: T1, NOP; test: [35S]GTPγS binding, NOP; type: biochemical; conditions: 1 h; read-out: % stim NOP
Description: as §1

KOPr = target: T4, KOPr (Homo sapiens, UniProt P41145); test: [35S]GTPγS binding, KOPr; type: biochemical
T4 construct: expressed in transfected cells
T4 sequence (P41145 whole entry): as above
Description: as §1

[5] = test system: carrageenan-induced thermal hyperalgesia; test: Carrageenan-induced thermal hyperalgesia (paw withdrawal latency); type: in vivo
Description: Compound 11 was tested for its effect on carrageenan-induced thermal hyperalgesia measured by paw withdrawal latency (FIG. 1a) and anti-hyperalgesic effect (FIG. 1b).

rhesus monkeys [6] = test: Antinociception against acute noxious stimulus (50° C. water); type: in vivo
Source text: (§2) These findings illustrate the safe and favorable profile of 11.

rhesus monkeys [7] = test: Physiological functions of monkeys (respiration, heart rate, blood pressure); type: in vivo; conditions: 0.01 mg/kg s.c.
Source text: as §2

rhesus monkeys [8] = test: Operant responding assay (self-administration); type: in vivo
Source text: as §2

rhesus monkeys [9] = test: Scratching responses and sedation after intrathecal administration; type: in vivo; conditions: intrathecal 3 μg
Source text: as §2

T1 sequence (P41146 whole entry): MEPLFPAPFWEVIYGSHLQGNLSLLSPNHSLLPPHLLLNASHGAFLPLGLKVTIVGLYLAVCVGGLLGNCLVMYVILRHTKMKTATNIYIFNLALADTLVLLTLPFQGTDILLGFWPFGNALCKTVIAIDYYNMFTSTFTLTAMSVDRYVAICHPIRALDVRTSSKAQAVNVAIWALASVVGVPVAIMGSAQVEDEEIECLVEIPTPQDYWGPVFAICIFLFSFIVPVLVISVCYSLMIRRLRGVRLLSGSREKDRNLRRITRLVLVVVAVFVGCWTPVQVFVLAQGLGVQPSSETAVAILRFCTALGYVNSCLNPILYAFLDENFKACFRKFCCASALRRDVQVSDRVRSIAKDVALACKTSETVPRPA

O=C(Cc1ccccc1)O[C@@]12CCC(=O)[C@@H]3Oc4c(O)ccc5c4[C@@]31CCN(CC1CC1)C2C5 [Compound 1, 14β-phenylacetyl-17-cyclopropylmethyl-7,8-dihydronoroxmorphinone]
Ki (NOP [1]): 127 ± 17 nM | Ki (MOP [2]): 0.86 ± 0.18 nM | Ki (KOP): 1.14 ± 0.46 nM | Emax (MOP [3]): 32% | Emax (NOP [4]): 28%

Cc1ccc(CC(=O)O[C@@]23CCC(=O)[C@@H]4Oc5c(O)ccc6c5[C@@]42CCN(CC2CC2)C3C6)cc1 [Compound 2, 14β-(4′-methylphenylacetyl)-17-cyclopropylmethyl-7,8-dihydronoroxymorphinone]
Ki (NOP [1]): 36.3 ± 4.2 nM | Ki (MOP [2]): 1.87 ± 0.09 nM | Ki (KOP): 1.56 ± 0.28 nM | Emax (MOP [3]): 35% | Emax (NOP [4]): 22%

Cc1ccccc1CC(=O)O[C@@]12CCC(=O)[C@@H]3Oc4c(O)ccc5c4[C@@]31CCN(CC1CC1)C2C5 [Compound 3, 14β-(2′-methylphenylacetyl)-17-cyclopropylmethyl-7,8-dihydronoroxymorphinone]
Ki (NOP [1]): 44.1 ± 3.1 nM | Ki (MOP [2]): 3.59 ± 0.86 nM | Ki (KOP): 1.69 ± 1.2 nM | Emax (MOP [3]): 42% | Emax (NOP [4]): 21%

Cc1cccc(CC(=O)O[C@@]23CCC(=O)[C@@H]4Oc5c(O)ccc6c5[C@@]42CCN(CC2CC2)C3C6)c1 [Compound 4]
Ki (NOP [1]): 49.9 ± 3.5 nM | Ki (MOP [2]): 1.91 ± 0.51 nM | Ki (KOP): 2.8 ± 0.91 nM | Emax (MOP [3]): 40% | Emax (NOP [4]): 59%

COc1cccc(CC(=O)O[C@@]23CCC(=O)[C@@H]4Oc5c(O)ccc6c5[C@@]42CCN(CC2CC2)C3C6)c1 [Compound 5, 14β-(3′-methoxyphenylacetyl)-17-cyclopropylmethyl-7,8-dihydronoroxymorphinone]
Ki (NOP [1]): 50.1 ± 2.7 nM | Ki (MOP [2]): 1.1 ± 0.08 nM | Ki (KOP): 1.44 ± 0.33 nM | Emax (MOP [3]): 11% | Emax (NOP [4]): 36%

O=C(Cc1ccc2c(c1)OCO2)O[C@@]12CCC(=O)[C@@H]3Oc4c(O)ccc5c4[C@@]31CCN(CC1CC1)C2C5 [Compound 6, 14β-(3′,4′-dioxymethylenephenylacetyl)-7-cyclopropylmethyl-7,8-dihydronoroxymorphinone]
Ki (NOP [1]): 94.3 ± 28 nM | Ki (MOP [2]): 0.99 ± 0.35 nM | Ki (KOP): 1.2 ± 0.42 nM | Emax (MOP [3]): 12% | Emax (NOP [4]): 44%

COc1ccccc1CC(=O)O[C@@]12CCC(=O)[C@@H]3Oc4c(O)ccc5c4[C@@]31CCN(CC1CC1)C2C5 [Compound 7, 14β-(2′-methoxyphenylacetyl)-17-cyclopropylmethyl-7,8-dihydronoroxmorphinone]
Ki (NOP [1]): 62.3 ± 4.9 nM | Ki (MOP [2]): 3.77 ± 0.9 nM | Ki (KOP): 3.52 ± 0.9 nM | Emax (MOP [3]): 37% | Emax (NOP [4]): 41%

O=C(Cc1ccccc1F)O[C@@]12CCC(=O)[C@@H]3Oc4c(O)ccc5c4[C@@]31CCN(CC1CC1)C2C5 [Compound 8, 14β-(2′-fluorophenylacetyl)-17-cyclopropylmethyl-7,8-dihydronoroxymorphinone]
Ki (NOP [1]): 69.7 ± 2.4 nM | Ki (MOP [2]): 2.59 ± 1.1 nM | Ki (KOP): 4.55 ± 0.7 nM | Emax (MOP [3]): 28% | Emax (NOP [4]): 15%

O=C(Cc1ccc(Cl)cc1)O[C@@]12CCC(=O)[C@@H]3Oc4c(O)ccc5c4[C@@]31CCN(CC1CC1)C2C5 [Compound 9, 14β-(4′-chlorophenylacetyl)-17-cyclopropylmethyl-7,8-dihydronoroxymorphinone]
Ki (NOP [1]): 51.3 ± 14 nM | Ki (MOP [2]): 1.78 ± 0.03 nM | Ki (KOP): 3.95 ± 0.59 nM | Emax (MOP [3]): 8.2% | Emax (NOP [4]): 19%

O=C(Cc1ccccc1Cl)O[C@@]12CCC(=O)[C@@H]3Oc4c(O)ccc5c4[C@@]31CCN(CC1CC1)C2C5 [Compound 10, 14β-(2′-chlorophenylacetyl)-17-cyclopropylmethyl-7,8-dihydronoroxymorphinone]
Ki (NOP [1]): 32.6 ± 2.3 nM | Ki (MOP [2]): 4.66 ± 1.8 nM | Ki (KOP): 1.34 ± 0.5 nM | Emax (MOP [3]): 39% | Emax (NOP [4]): 50%

O=C(CCc1ccccc1)O[C@@]12CCC(=O)[C@@H]3Oc4c(O)ccc5c4[C@@]31CCN(CC1CC1)C2C5 [Compound 11, 14β-Phenylpropanoyl-17-cyclopropylmethyl-7,8-dihydronoroxymorphinone]
Ki (NOP [1]): 14.8 ± 0.94 nM | Ki (MOP [2]): 0.86 ± 0.23 nM | Ki (KOP): 10.5 ± 0.17 nM | Emax (MOP [3]): 18% | Emax (NOP [4]): 34% | stimulation of the KOPr (KOPr): no stimulation | reversal of 11-induced reversal of thermal hyperalgesia by pretreatment with NOP receptor antagonist J113397 ([5]; J113397 pretreatment): partially reverse | effect on carrageenan-induced thermal hyperalgesia (paw withdrawal latency, anti-hyperalgesic effect) ([5]; intrathecal): efficacious and long acting | reversal of 11-induced reversal of thermal hyperalgesia by pretreatment with MOP receptor antagonist naltrexone ([5]; naltrexone pretreatment): partially reverse | antinociceptive effect (rhesus monkeys [6]; 0.01 mg/kg s.c., rhesus monkeys): full antinociceptive effects | antinociceptive effect (rhesus monkeys [6]; intrathecal 3 μg, monkeys): full antinociceptive effects | duration of full antinociceptive effects (rhesus monkeys [6]; intrathecal 3 μg, monkeys): 24 h | duration of antinociception (rhesus monkeys [6]; s.c. 0.001-0.01 mg/kg, rhesus monkeys): ~24 h | antinociception against acute noxious stimulus (50° C. water) (rhesus monkeys [6]; s.c. 0.001-0.01 mg/kg, rhesus monkeys, pilot experiments): dose-dependently produced long lasting antinociception | bradycardia and hypotension (rhesus monkeys [7]): no bradycardia and hypotension | respiratory depression (rhesus monkeys [7]): no respiratory depression | self-administration (abuse liability) (rhesus monkeys [8]): did not self-administer | scratching responses (rhesus monkeys [9]): without eliciting scratching responses | signs of sedation (rhesus monkeys [9]; during test period): did not show any signs of sedation

COc1ccc(CCC(=O)O[C@@]23CCC(=O)[C@@H]4Oc5c(O)ccc6c5[C@@]42CCN(CC2CC2)C3C6)cc1 [Compound 12, 14β-(4′-methoxyphenylpropanoyl)-17-cyclopropylmethyl-7,8-dihydronoroxymorphinone]
Ki (NOP [1]): 766 ± 177 nM | Ki (MOP [2]): 0.91 ± 0.12 nM | Ki (KOP): 1.96 ± 0.04 nM | Emax (NOP [4]): 52% | stimulation of the KOPr (KOPr): no stimulation

COc1cccc(CCC(=O)O[C@@]23CCC(=O)[C@@H]4Oc5c(O)ccc6c5[C@@]42CCN(CC2CC2)C3C6)c1 [Compound 13, 14β-(3′-methoxyphenylpropanoyl)-17-cyclopropylmethyl-78-dihydronoroxymorphinone]
Ki (NOP [1]): 154 ± 11.5 nM | Ki (MOP [2]): 1.14 ± 0.18 nM | Ki (KOP): 1.24 ± 0.15 nM | Emax (NOP [4]): 46% | stimulation of the KOPr (KOPr): no stimulation

COc1ccccc1CCC(=O)O[C@@]12CCC(=O)[C@@H]3Oc4c(O)ccc5c4[C@@]31CCN(CC1CC1)C2C5 [Compound 14, 14β-(2′-methoxyphenylpropanoyl)-17-cyclopropylmethyl-7,8-dihydronoroxymorphinone]
Ki (NOP [1]): 120 ± 20.5 nM | Ki (MOP [2]): 1.67 ± 0.42 nM | Ki (KOP): 1.24 ± 0.11 nM | Emax (NOP [4]): 56% | stimulation of the KOPr (KOPr): no stimulation

Cc1cccc(CCC(=O)O[C@@]23CCC(=O)[C@@H]4Oc5c(O)ccc6c5[C@@]42CCN(CC2CC2)C3C6)c1 [Compound 15, 14β-(3′-methylphenylpropanoyl)-17-cyclopropylmethyl-7,8-dihydronoroxymorphinone]
Ki (NOP [1]): 37.7 ± 2.6 nM | Ki (MOP [2]): 0.91 ± 0.1 nM | Ki (KOP): 1.56 ± 0.2 nM | Emax (MOP [3]): 23%

O=C(CCc1ccc(Cl)cc1)O[C@@]12CCC(=O)[C@@H]3Oc4c(O)ccc5c4[C@@]31CCN(CC1CC1)C2C5 [Compound 16, 14β-(4′-chlorophenylpropanoyl)-17-cyclopropylmethyl-7,8-dihydronoroxymorphinone]
Ki (NOP [1]): 45.2 ± 17.5 nM | Ki (MOP [2]): 0.54 ± 0.11 nM | Ki (KOP): 1.34 ± 0.12 nM | Emax (MOP [3]): 21% | Emax (NOP [4]): 41% | stimulation of the KOPr (KOPr): no stimulation

O=C(CCc1cccc(Cl)c1)O[C@@]12CCC(=O)[C@@H]3Oc4c(O)ccc5c4[C@@]31CCN(CC1CC1)C2C5 [Compound 17, 14β-(3′-chlorophenylpropanoyl)-17-cyclopropylmethyl-7,8-dihydronoroxymorphinone]
Ki (NOP [1]): 27 ± 4.9 nM | Ki (MOP [2]): 0.39 ± 0.07 nM | Ki (KOP): 0.74 ± 0.05 nM | Emax (MOP [3]): 26% | Emax (NOP [4]): 22% | stimulation of the KOPr (KOPr): no stimulation

Cc1ccc(CCC(=O)O[C@@]23CCC(=O)[C@@H]4Oc5c(O)ccc6c5[C@@]42CCN(CC2CC2)C3C6)cc1 [Compound 18, 14β-(4′-methylphenylpropanoyl)-17-cyclopropylmethyl-7,8-dihydronoroxymorphinone]
Ki (NOP [1]): 35.8 ± 1.6 nM | Ki (MOP [2]): 0.78 ± 0.22 nM | Ki (KOP): 1.06 ± 0.4 nM | Emax (MOP [3]): 25% | Emax (NOP [4]): 63%

Cc1ccccc1CCC(=O)O[C@@]12CCC(=O)[C@@H]3Oc4c(O)ccc5c4[C@@]31CCN(CC1CC1)C2C5 [Compound 19, 14β-(2′-methylphenylpropanoyl)-17-cyclopropylmethyl-7,8-dihydronoroxymorphinone]
Ki (NOP [1]): 12.1 ± 2.7 nM | Ki (MOP [2]): 0.56 ± 0.11 nM | Ki (KOP): 0.64 ± 0.1 nM | Emax (MOP [3]): 48% | Emax (NOP [4]): 33%
